The source of these data is patent US10011614B2, “Bis-β-carboline compound and preparation method, pharmaceutical composition and use thereof” (XINJIANG HUASHIDAN PHARMACEUTICAL RESEARCH CO., LTD., priority 2012, dated 2018).

For series [1], the system named is SK-OV-3 (human ovarian cancer cells). Description: Antitumor screening in vitro, MTT assay, SK-OV-3. Format: cell-based. As to conditions: Homo sapiens, 48 hours, SK-OV-3 cells. How it is done: (§1) Cell lines: BGC (human gastric cancer cells), A375 (human malignant melanoma cells), 769-P (human renal carcinoma cells), KB (human oral epidermoid carcinoma cells), SK-OV-3 (human ovarian cancer cells), etc, were selected, and the test method was the MTT assay. Cisplatin was as a positive control.
(§2) Specific methods are as follows: cells growing well in the logarithmic phase were seeded in 96-well plates at a concentration of 1×10^4 cells/ml, and then were placed in 37° C., containing 5% CO2 incubator for 24 hours. After discarding the old solution, changed fresh medium, and added sterilization treatment compound, and then cultured for 48 hours. After discarding the culture medium, 20 ul RPMI1640 medium containing 5 mg/ml MTT were added to each well in 96-well plates and cells were cultured for 4 hours. After the supernatant was carefully removed, 100 μl DMSO was added to each well, and the plates were Oscillated about 10 min to dissolve the precipitate, followed by detecting OD value in wavelength 490 nm by the microplate reader. Cell survival rate for each sample concentrations was determined by the following formula: The mean survival rate %=the average OD value of sample group/the average OD value of control group×100%
(§3) Morphological studies by mapping with the logarithm of the drug concentration and the mean survival rate % of each sample to obtain IC50 values for each sample.
On the technique in general: Formazan colour is commonly taken as a measure of viable cells.

The subject of series [2] is A375 (human malignant melanoma cells). Briefly: Antitumor screening in vitro, MTT assay, A375. Format: cell-based. Conditions: Homo sapiens, A-375, 48 hours. On the procedure:
as §1, §2, §3

For series [3], the system named is KB (human oral epidermoid carcinoma cells). Briefly: Antitumor screening in vitro, MTT assay, KB. Conditions: Homo sapiens, 48 hours. Format: cell-based. On the procedure: as §1, §2, §3
For series [4], the system named is BGC (human gastric cancer cells). Briefly: Antitumor screening in vitro, MTT assay, BGC. It counts as cell-based. As to conditions: Homo sapiens, 48 hours. How it is done: as §1, §2, §3
Series [5] deals with 769-P (human renal carcinoma cells). Briefly: Antitumor screening in vitro, MTT assay, 769-P. It counts as cell-based. Conditions: Homo sapiens, 48 hours, 769-P cells. How it is done: as §1, §2, §3
A short description of the next series: in vivo. Conditions: both, Kunming, mouse, in vivo, ip. On the procedure: Solvent: 0.9% saline and 0.5% CMC-Na solution. According to pre-test results, design 5 dose gradient for each sample, dose spacing was 0.8 times. […] Experimental volume is 0.5 ml/20 g mouse. A single intraperitoneal administration is used. Kunming mice were taken and grouped randomly by gender, and intraperitoneal administration according to dose designation was set to observe the immediate reaction after administration in mice. Dead animals were dissected to observe, surviving animals continued to observe two weeks, and the animal deaths in two weeks were recorded. After two weeks, surviving animals were dissected, observed substantial organ lesions, and the organs having substantive lesions were further for histological examination. According to the number of deaths in each group of animals, calculating the median lethal dose (LD50 value) by Bliss method, and further, calculating the maximum tolerated dose (MTD) for less toxic compounds.

As for `c1ccc2c(c1)c1ccncc1n2CCCCn1c2ccccc2c2ccncc21` [Compound 1, 1,4-bis(β-carboline-9-yl) butane], the IC50 (usually the concentration at which inhibition is half-maximal) in series [1] was more than 300 µM; in series [2], more than 300 µM; in series [3], more than 300 µM; in series [4] it was 59.7 µM; in series [5], 199 µM. Moreover, in “in vivo”, the LD50 (in general, the dose expected to kill half of the subjects tested) at 2 weeks was found to be 200 mg/kg.
In the case of `Cc1nccc2c3ccccc3n(CCCn3c4ccccc4c4ccnc(C)c43)c12` [Compound 6, 1,3-bis (1-methyl-β-carboline-9-yl) propane], the melting point (usually the temperature of the solid-liquid transition) was 239 to 240 °C. The IC50 in series [1] stood at 26.4 µM. Moreover, in series [2], the IC50 was 69.5 µM. For the same compound, the IC50 in series [3] was 160 µM. In series [4], this compound gave an IC50 of 252 µM. For the same compound, the IC50 in series [5] came to 145 µM.
Take `Cc1nccc2c3ccccc3n(CCCCn3c4ccccc4c4ccnc(C)c43)c12` [Compound 7, 1,4-bis(1-methyl-β-carboline-9-yl) butane]: the IC50 in series [1] was found to be 4.8 µM; in series [2] it was 13.1 µM; in series [3], 6.4 µM; in series [4], 22.3 µM; in series [5] it was 6.5 µM. Moreover, in “in vivo”, the LD50 at 2 weeks was determined as 200 mg/kg.
For `Cc1nccc2c3ccccc3n(CCCCCn3c4ccccc4c4ccnc(C)c43)c12` [Compound 8, 1,5-bis(1-methyl-β-carboline-9-yl)pentane], the melting point fell in the range of 213 to 214 °C. Also, in series [1], the midpoint of inhibition, the IC50, lay at 18.8 µM. The compound further gave an IC50 in series [2] of more than 300 µM. Also, in series [3], the IC50 was more than 300 µM. Besides, in series [4], the IC50 is more than 300 µM. For the same compound, the IC50 in series [5] is more than 300 µM.
For the compound `Cc1nccc2c3ccccc3n(CCCCCCn3c4ccccc4c4ccnc(C)c43)c12` [Compound 9, 1,6-bis(1-methyl-β-carboline-9-yl) hexane], the IC50 is 96.8 µM in series [1]; more than 300 µM in series [2]; more than 300 µM in series [3]; more than 300 µM in series [4]; 51.7 µM in series [5]. The LD50 at 2 weeks in the series “in vivo” turned out to be 200 mg/kg.
In turn, `Cc1nccc2c3ccccc3n(CCCCCCCn3c4ccccc4c4ccnc(C)c43)c12` [Compound 10, 1,7-bis(1-methyl-β-carboline-9-yl) heptane] yielded a melting point of 189 to 190 °C. Besides, the IC50 in series [1] amounted to 16.9 µM. Further, inhibition in series [2] was half-maximal at 38 µM (IC50). Also, the IC50 in series [3] was determined as 87.9 µM. This compound also registered a half-inhibitory concentration (IC50) in series [4] of 134 µM. For the same compound, the IC50 in series [5] worked out at 149 µM.
Regarding `Cc1nccc2c3ccccc3n(CCCCCCCCn3c4ccccc4c4ccnc(C)c43)c12` [Compound 11, 1,8-bis(1-methyl-β-carboline-9-yl) octane], the IC50 in series [1] is more than 300 µM; in series [2] it was more than 300 µM; in series [3] it was more than 300 µM; in series [4] it was more than 300 µM; in series [5], 3.1 µM. Further, the LD50 at 2 weeks in the series “in vivo” stood at 200 mg/kg.
With `Cc1nccc2c3ccccc3n(CCCCCCCCCn3c4ccccc4c4ccnc(C)c43)c12` [Compound 12, 1,9-bis(1-methyl-β-carboline-9-yl) nonane], the melting point was 155 to 156 °C. Further, in series [1], the IC50 came out at 61.9 µM. Half-maximal inhibition in series [2] (IC50) required 67.2 µM. Further, the IC50 in series [3] is more than 300 µM. This compound also had an IC50 in series [4] of more than 300 µM. The compound further displayed an IC50 in series [5] of 291 µM.
In the case of `Cc1nccc2c3ccccc3n(CCCCCCCCCCn3c4ccccc4c4ccnc(C)c43)c12` [Compound 13, 1,10-bis(1-methyl-β-carboline-9-yl) decane], the melting point was in the range of 152 to 154 °C. The compound further yielded an IC50 in series [1] of 8.5 µM. In series [2], this compound returned an IC50 of more than 300 µM. Besides, the IC50 in series [3] was more than 300 µM. In series [4], this compound yielded an IC50 of more than 300 µM. The same compound gave a half-inhibitory concentration (IC50) in series [5] of 16.2 µM.
With `COc1ccc2c3ccnc(C)c3n(CCCCn3c4cc(OC)ccc4c4ccnc(C)c43)c2c1` [Compound 14, 1,4-bis(7-methoxy-1-methyl-β-carboline-9-yl) butane], the concentration for half-maximal inhibition (IC50) in series [1] amounted to 7.1 µM; in series [2], 6.2 µM; in series [3], 2.8 µM; in series [4] it was 75.7 µM; in series [5], 65.6 µM. Also, the LD50 at 2 weeks in the series “in vivo” stood at 50 mg/kg.
In turn, `COc1ccc2c3ccnc(C)c3n(CCCCCn3c4cc(OC)ccc4c4ccnc(C)c43)c2c1` [Compound 15, 1,5-bis(7-methoxy-1-methyl-β-carboline-9-yl)pentane] came in with a melting point of 180 to 181 °C. For the same compound, in series [1], inhibition was half-maximal at 1.7 µM (IC50). In series [2], the IC50 was less than 1.38 µM. This compound had a concentration for half-maximal inhibition (IC50) in series [3] of 5 µM. The same compound returned an IC50 in series [4] of 58.6 µM. The compound also yielded a half-inhibitory concentration (IC50) in series [5] of 81 µM.
As for `COc1ccc2c3ccnc(C)c3n(CCCCCCCn3c4cc(OC)ccc4c4ccnc(C)c43)c2c1` [Compound 17, 1,7-bis(7-methoxy-1-methyl-β-carboline-9-yl) heptane], the IC50 in series [1] is 11.7 µM; in series [2], 35.3 µM; in series [3], 155 µM; in series [4], more than 300 µM; in series [5], more than 300 µM. The compound further returned an LD50 at 2 weeks in the series “in vivo” of 200 mg/kg.
`Cc1nccc2c3cc(Br)ccc3n(CCCCC(C)n3c4ccc(Br)cc4c4ccnc(C)c43)c12` (stereo not drawn) [Compound 21, 1,5-bis(6-bromo-1-methyl-β-carboline-9-yl) hexane] registered a melting point of 208 to 209 °C. This compound had an IC50 in series [1] of more than 300 µM. The IC50 in series [2] is more than 300 µM. In series [3], the IC50 was more than 300 µM. The compound further came in with a half-inhibitory concentration (IC50) in series [4] of more than 300 µM. For the same compound, in series [5], the IC50 was determined as 4.3 µM.
With `Cc1nccc2c3cc(Br)ccc3n(CCCCCCn3c4ccc(Br)cc4c4ccnc(C)c43)c12` [Compound 22, 1,6-bis(6-bromo-1-methyl-β-carboline-9-yl) hexane], the IC50 was 63.4 µM in series [1]; more than 300 µM in series [2]; more than 300 µM in series [3]; more than 300 µM in series [4]; more than 300 µM in series [5]. The compound further came in with an LD50 at 2 weeks in the series “in vivo” of 200 mg/kg.
In turn, `CCCCOc1ccc2c3ccnc(C)c3n(CCCCn3c4cc(OCCCC)ccc4c4ccnc(C)c43)c2c1` [Compound 23, 1,4-bis(7-n-butoxy-1-methyl-β-carboline-9-yl) butane] returned a melting point of 193 to 194 °C. In series [1], the IC50 turned out to be 5.5 µM. Also, the IC50 in series [2] was 3.8 µM. In series [3], this compound came in with an IC50 of 6.8 µM. In series [4], this compound gave an IC50 of 8.5 µM. Moreover, the IC50 in series [5] was more than 300 µM.
In turn, `c1cncc(-c2nccc3c4ccccc4n(CCCCn4c5ccccc5c5ccnc(-c6cccnc6)c54)c23)c1` [Compound 31, 1,4-bis[1-(pyridine-3-yl)-β-carboline-9-yl) butane] came in with a melting point of 224 to 225 °C. For the same compound, half-maximal inhibition in series [1] (IC50) required 36.8 µM. Moreover, the IC50 in series [2] amounted to 85.3 µM. In series [3], this compound showed an IC50 of more than 300 µM. For the same compound, in series [4], half-maximal inhibition (IC50) was put at 270 µM. In series [5], this compound gave an IC50 of more than 300 µM.
`c1ccc2c(c1)c1ccnc(-c3ccsc3)c1n2CCCCCCn1c2ccccc2c2ccnc(-c3ccsc3)c21` [Compound 33, 1,6-bis[1-(3-thienyl)-β-carboline-9-yl) hexane] registered a melting point of 198 to 199 °C. In series [1], this compound came in with an IC50 of 67.6 µM. The IC50 in series [2] was more than 300 µM. For the same compound, the concentration for half-maximal inhibition (IC50) in series [3] was more than 300 µM. In addition, the IC50 in series [4] was more than 300 µM. Besides, the IC50 in series [5] was more than 300 µM.
With `CC(C)c1nccc2c3ccccc3n(CCCCCCn3c4ccccc4c4ccnc(C(C)C)c43)c12` [Compound 39, 1,6-bis(1-isopropyl-β-carboline-9-yl) hexane], the melting point fell in the range of 241 to 242 °C. The compound further showed an IC50 in series [1] of 31.8 µM. In series [2], the 50% inhibitory concentration (IC50) worked out at 53.5 µM. It took 253 µM to reach half-maximal inhibition in series [3] (IC50). This compound displayed an IC50 in series [4] of more than 300 µM. In addition, the midpoint of inhibition in series [5], the IC50, lay at 18.5 µM.
